Tests used:
[1] = test system: NTCP; experiment: Expression level of NTCP in rat liver (UHPLC-MS/MS signature peptide) and correlation with AUC; assay type: in vivo; settings: before administration of AE-PM
Excerpt: (§1) The detection method for UGT1A1 and nine other transporter proteins in the liver was comprehensively investigated in our study (35).
An Agilent 1290 Infinity series UHPLC system coupled to an Agilent 6460 series MS/MS system (Agilent Technologies, Santa Clara, CA, United States) was applied to quantitate the signature peptides in ESI positive ionization mode. […] The sequence of characteristic peptides that corresponded to UGT1A1 and the other nine transporter proteins were based on our previous experiments and listed in Table 3 .
(§2) Total membrane protein was isolated (in triplicate) from liver tissue samples according to the Native Membrane Protein Extraction Kit protocol. Subsequently, protein concentrations were determined by the BCA Protein Assay Kit. 10 µl of 5 mg/ml (or lower concentration) of a hepatocyte membrane protein incubated with 20 µl of dithiothreitol (100 mM) and 50 µl of ammonium bicarbonate buffer (50 mM, pH 7.8). After incubation at 95°C for 5 min, 20 µl of iodoacetamide (20 mM) was added to the mixture, followed by incubation at 37°C for 20 min in the dark. To concentrate the samples, ice-cold methanol (0.5 ml), chloroform (0.2 ml), and water (0.2 ml) were added. […]

[2] = test system: BSEP; experiment: Expression level of BSEP in rat liver (UHPLC-MS/MS signature peptide) and correlation with AUC; assay type: in vivo; settings: before administration of AE-PM
Description: as §1
(§3) The sequence of characteristic peptides that corresponded to UGT1A1 and the other nine transporter proteins were based on our previous experiments and listed in Table 3 .
as §2, with “added. After centrifugation at 4°C for 5 min at 16,000 g, the supernatant was discarded and the pellet was washed once with ice-cold methanol (0.25 ml) and resuspended with 40 µl of reconstitution solution (equal volume of 3% sodium deoxycholate (w/v) and 5 mM ammonium bicarbonate buffer). Finally, the protein sample was digested with 10 µl of trypsin. The protein-to-trypsin ratio was 25:1 (w/w).” for “added.”

[3] = test system: OATP1A4; experiment: Expression level of OATP1A4 in rat liver (UHPLC-MS/MS signature peptide) and correlation with AUC; assay type: in vivo; settings: before administration of AE-PM
Description: as §1, §3
as §2, with “added. After centrifugation at 4°C for 5 min at 16,000 g, the supernatant was discarded and the pellet was washed once with ice-cold methanol (0.25 ml) and resuspended with 40 µl of reconstitution solution (equal volume of 3% sodium deoxycholate (w/v) and 5 mM ammonium bicarbonate buffer). Finally, the protein sample was digested with 10 µl of trypsin. The protein-to-trypsin ratio was 25:1 (w/w).” for “added.”

[4] = test system: OCT1; experiment: Expression level of OCT1 in rat liver (UHPLC-MS/MS signature peptide) and correlation with AUC; assay type: in vivo; settings: before administration of AE-PM
Description: as §1, §3
as §2, with “added. After centrifugation at 4°C for 5 min at 16,000 g, the supernatant was discarded and the pellet was washed once with ice-cold methanol (0.25 ml) and resuspended with 40 µl of reconstitution solution (equal volume of 3% sodium deoxycholate (w/v) and 5 mM ammonium bicarbonate buffer). Finally, the protein sample was digested with 10 µl of trypsin. The protein-to-trypsin ratio was 25:1 (w/w).” for “added.”

[5] = test system: MDR1; experiment: Expression level of MDR1 in rat liver (UHPLC-MS/MS signature peptide) and correlation with AUC; assay type: in vivo; settings: before administration of AE-PM
Description: as §1, §3
as §2, with “added. After centrifugation at 4°C for 5 min at 16,000 g, the supernatant was discarded and the pellet was washed once with ice-cold methanol (0.25 ml) and resuspended with 40 µl of reconstitution solution (equal volume of 3% sodium deoxycholate (w/v) and 5 mM ammonium bicarbonate buffer). Finally, the protein sample was digested with 10 µl of trypsin. The protein-to-trypsin ratio was 25:1 (w/w).” for “added.”

[6] = test system: UGT1A1; experiment: Expression level of UGT1A1 in rat liver (UHPLC-MS/MS signature peptide) and correlation with AUC; assay type: in vivo; settings: before administration of AE-PM
Description: as §1, §3
as §2, with “added. After centrifugation at 4°C for 5 min at 16,000 g, the supernatant was discarded and the pellet was washed once with ice-cold methanol (0.25 ml) and resuspended with 40 µl of reconstitution solution (equal volume of 3% sodium deoxycholate (w/v) and 5 mM ammonium bicarbonate buffer). Finally, the protein sample was digested with 10 µl of trypsin. The protein-to-trypsin ratio was 25:1 (w/w).” for “added.”

[7] = Serum biochemistry in ANIT and CCl4 liver injury model rats; assay type: in vivo, rat; settings: 24 h after model induction; before AE-PM
Description: Additionally, group 3 represented the CCl4-induced hepatocytes injury model, which was treated with pure CCl4 (5 ml/kg, s. c.) on day 0, 50% CCl4 (diluted in olive oil) (3 ml/kg, s. c.) on day 3, and 20% CCl4 (diluted in olive oil) (3 ml/kg, s. c.) on day 6. After 24 h, five rats selection for serum and liver collection from each of the three groups. Blood samples were collected in a coagulation tube, and were centrifuged at 4°C for 15 min (4,000 rpm), The resultant serum was used for the ALT, AST, TBIL, DBIL, TBA and ALP assays. Liver samples were dissected and stored at −80°C for further analysis, whereas the central part of the right large lobe of the liver was used for histological examination.

SMILES | Reduction of NTCP expression level compared with the control group [1] [%] | Reduction of BSEP expression level compared with the control group [2] [%] | Reduction of OATP1A4 expression level compared with the control group [3] [%] | Reduction of OCT1 expression level compared with the control group [4] [%] | Reduction of MDR1 expression level compared with the control group [5] [%] | Reduction of UGT1A1 expression level compared with the control group [6] [%] | Increase of serum ALT compared with the control group [7] [folds] | Increase of serum AST compared with the control group [7] [folds]
S=C=Nc1cccc2ccccc12 [ANIT, alpha-naphthylisothiocyanate] | 38.02 |  |  |  |  |  |  | 
ClC(Cl)(Cl)Cl [CCl4, Carbon tetrachloride] | 15.75 | 26.92 | 46.11 | 22.30 | 34.15 | 31.18 | 4.45 | 2.68
